Measured values as given in ChEMBL document CHEMBL1201862, “PubChem BioAssay data set” (2004).
Values joined by “and” are separate entries in the source; they are usually repeats but may differ in a detail not shown here. Equal values may be shown once.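 These data come from cells grown in 96-well plates and exposed to compound for 48 hours at five concentrations. The concentration for 50% growth inhibition is given as GI50.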 Active and inactive are the calls of the source. Rule as the data show it: active = GI50 up to about 1.1 µM and inactive = higher.

Legend:
Test in all cases: DTP human tumour cell line panel, 48 h
[1] = test system: A498
[2] = test system: ACHN
[3] = test system: EKVX
[4] = test system: HCC 2998
[5] = test system: HCT-15
[6] = test system: HL-60
[7] = test system: IGROV-1
[8] = test system: K562
[9] = test system: KM12
[10] = test system: M14
[11] = test system: NCI-H460
[12] = test system: NCI-H522
[13] = test system: OVCAR-8
[14] = test system: RPMI-8226
[15] = test system: SK-MEL-2
[16] = test system: SK-OV-3
[17] = test system: SNB-75
[18] = test system: SW-620
[19] = test system: MCF7

For `C[N+](C)(C)CC(=O)N/N=C(\C(=O)Nc1ccc(Cl)cc1)C1C(=O)N(c2ccccc2)N=C1N` (centres undefined), the GI50 [1] was > 100 µM (inactive), the GI50 [2] was > 100 µM (inactive) and the GI50 [3] was > 100 µM (inactive). The GI50 [4] was > 100 µM (inactive), the GI50 [5] was > 100 µM and the GI50 [6] was > 100 µM (inactive). The GI50 [7] was > 100 µM (inactive), the GI50 [8] was > 100 µM (inactive) and the GI50 [9] was > 100 µM (inactive). For the same molecule, the GI50 [10] was > 100 µM (inactive), the GI50 [11] was > 100 µM (inactive) and the GI50 [12] was > 100 µM (inactive). The GI50 [13] was > 100 µM (inactive), the GI50 [14] was > 100 µM (inactive) and the GI50 [15] was > 100 µM (inactive). For the same molecule, the GI50 [16] was > 100 µM (inactive), the GI50 [17] was > 100 µM (inactive) and the GI50 [18] was > 100 µM (inactive).
With `CCCCCCCC(=O)OCC1OC(n2cc(F)c(=O)[nH]c2=O)C(NC(=O)OCc2ccccc2)C(O)C1O` (centres undefined) the GI50 [1] was > 100 µM (inactive), the GI50 [2] was > 100 µM (inactive) and the GI50 [3] was > 100 µM (inactive). For the same molecule, the GI50 [4] was 19.5 µM (inactive), the GI50 [5] was > 100 µM and the GI50 [6] was 40.3 µM (inactive). The GI50 [7] was > 100 µM (inactive), the GI50 [8] was 28.2 µM (inactive) and the GI50 [9] was 32.4 µM (inactive). The GI50 [10] was > 100 µM (inactive), the GI50 [11] was > 100 µM (inactive) and the GI50 [12] was 26.2 µM (inactive). The GI50 [13] was > 100 µM (inactive), the GI50 [14] was 26.4 µM (inactive) and the GI50 [15] was 20.4 µM (inactive). The GI50 [16] was > 100 µM (inactive), the GI50 [17] was 29.3 µM (inactive) and the GI50 [18] was > 100 µM (inactive).
In the case of `c1cncc(C2c3[nH]c4ccccc4c3CCN2CCCN2CCCCC2)c1` (centres undefined), the GI50 [1] is reported as > 100 µM (inactive), the GI50 [2] is reported as > 100 µM (inactive) and the GI50 [3] is reported as > 100 µM (inactive). For the same molecule, the GI50 [4] was > 100 µM (inactive), the GI50 [5] was > 100 µM and the GI50 [6] was > 100 µM (inactive). For the same molecule, the GI50 [7] was > 100 µM (inactive), the GI50 [8] was > 100 µM (inactive) and the GI50 [9] was > 100 µM (inactive). The GI50 [10] was 18.6 µM (inactive), the GI50 [11] was > 100 µM (inactive) and the GI50 [12] was > 100 µM (inactive). The GI50 [13] was > 100 µM (inactive), the GI50 [14] was > 100 µM (inactive) and the GI50 [15] was > 100 µM (inactive). For the same molecule, the GI50 [16] was > 100 µM (inactive), the GI50 [17] was > 100 µM (inactive) and the GI50 [18] was > 100 µM (inactive).
In the case of `CCOC(=O)c1c(-c2ccc(Cl)cc2)c(C#N)c(=S)n(C2OC(COC(C)=O)C(OC(C)=O)C(OC(C)=O)C2OC(C)=O)c1C` (centres undefined), the GI50 [1] is reported as 74 µM (inactive), the GI50 [2] is reported as > 100 µM (inactive) and the GI50 [3] is reported as > 100 µM (inactive). The GI50 [4] was > 100 µM (inactive), the GI50 [5] was > 100 µM and the GI50 [6] was > 100 µM (inactive). The GI50 [7] was > 100 µM (inactive), the GI50 [8] was > 100 µM (inactive) and the GI50 [9] was > 100 µM (inactive). For the same molecule, the GI50 [10] was > 100 µM (inactive), the GI50 [19] was > 100 µM (inactive) and the GI50 [11] was > 100 µM (inactive). The GI50 [12] was > 100 µM (inactive), the GI50 [13] was > 100 µM (inactive) and the GI50 [15] was 1.77 µM (inactive). For the same molecule, the GI50 [16] was > 100 µM (inactive), the GI50 [17] was 0.689 µM (active) and the GI50 [18] was > 100 µM (inactive).
For `[O-][n+]1c2ccccc2[n+]([O-])c2ccccc21`, the GI50 [1] was > 100 µM (inactive), the GI50 [2] was 61 µM (inactive) and the GI50 [3] was > 100 µM (inactive). For the same molecule, the GI50 [5] was 68.2 µM, the GI50 [6] was 11.5 µM (inactive) and the GI50 [7] was 46.5 µM (inactive). For the same molecule, the GI50 [8] was > 100 µM (inactive), the GI50 [10] was 33.1 µM (inactive) and the GI50 [19] was 48.1 µM (inactive). The GI50 [11] was 30.1 µM (inactive), the GI50 [12] was > 100 µM (inactive) and the GI50 [13] was 86.3 µM (inactive). The GI50 [14] was 16.8 µM (inactive), the GI50 [15] was > 100 µM (inactive) and the GI50 [17] was > 100 µM (inactive). The GI50 [18] was > 100 µM (inactive).
For `CC(=O)OCC1OC(n2c(C)c(C(C)=O)c(-c3ccco3)c(C#N)c2=S)C(OC(C)=O)C(OC(C)=O)C1OC(C)=O` (centres undefined), the GI50 [1] was 85.1 µM (inactive), the GI50 [2] was > 100 µM (inactive) and the GI50 [3] was > 100 µM (inactive). The GI50 [4] was > 100 µM (inactive), the GI50 [5] was > 100 µM and the GI50 [6] was > 100 µM (inactive). The GI50 [8] was > 100 µM (inactive) and 51.1 µM (inactive), the GI50 [9] was > 100 µM (inactive) and the GI50 [10] was > 100 µM (inactive). The GI50 [19] was > 100 µM (inactive), the GI50 [11] was > 100 µM (inactive) and the GI50 [12] was > 100 µM (inactive). The GI50 [13] was > 100 µM (inactive), the GI50 [16] was > 100 µM (inactive) and the GI50 [18] was > 100 µM (inactive).
In the case of `O=C(/C=C/c1ccc(Cl)cc1)c1ccc(Cl)c(Cl)c1`, the GI50 [1] is reported as 34.4 µM (inactive), the GI50 [2] is reported as 29 µM (inactive) and the GI50 [3] is reported as 26.4 µM (inactive). For the same molecule, the GI50 [4] was 30.3 µM (inactive), the GI50 [5] was 26 µM and the GI50 [6] was 3.44 µM (inactive). For the same molecule, the GI50 [7] was 22.3 µM (inactive), the GI50 [8] was 21.7 µM (inactive) and the GI50 [9] was 9.31 µM (inactive). For the same molecule, the GI50 [10] was 28 µM (inactive), the GI50 [11] was 34.6 µM (inactive) and the GI50 [12] was 18.8 µM (inactive). For the same molecule, the GI50 [13] was 20.6 µM (inactive), the GI50 [14] was 2.95 µM (inactive) and the GI50 [15] was 23.4 µM (inactive). For the same molecule, the GI50 [16] was 26.4 µM (inactive), the GI50 [17] was 19.6 µM (inactive) and the GI50 [18] was 5.41 µM (inactive).
For `Cc1ccc(NC(=O)C(=O)C2C(=O)NC(=O)NC2=O)c(C)c1`, the GI50 [1] was > 100 µM (inactive), the GI50 [2] was > 100 µM (inactive) and the GI50 [3] was > 100 µM (inactive). For the same molecule, the GI50 [4] was > 100 µM (inactive), the GI50 [5] was > 100 µM and the GI50 [6] was > 100 µM (inactive). For the same molecule, the GI50 [7] was > 100 µM (inactive), the GI50 [8] was > 100 µM (inactive) and the GI50 [9] was > 100 µM (inactive). The GI50 [10] was > 100 µM (inactive), the GI50 [11] was > 100 µM (inactive) and the GI50 [12] was > 100 µM (inactive). The GI50 [13] was > 100 µM (inactive), the GI50 [14] was > 100 µM (inactive) and the GI50 [15] was > 100 µM (inactive). The GI50 [16] was > 100 µM (inactive), the GI50 [17] was > 100 µM (inactive) and the GI50 [18] was > 100 µM (inactive).
With `CCOC(=O)C(=[N+]=[N-])C(=O)C1(C(=O)OCC)CCN(C(=O)c2ccccc2)C1=O` (centres undefined) the GI50 [1] was > 100 µM (inactive), the GI50 [2] was > 100 µM (inactive) and the GI50 [3] was > 100 µM (inactive). For the same molecule, the GI50 [5] was > 100 µM, the GI50 [6] was > 100 µM (inactive) and the GI50 [7] was > 100 µM (inactive). For the same molecule, the GI50 [9] was > 100 µM (inactive), the GI50 [10] was > 100 µM (inactive) and the GI50 [19] was > 100 µM (inactive). The GI50 [11] was > 100 µM (inactive), the GI50 [12] was > 100 µM (inactive) and the GI50 [13] was > 100 µM (inactive). The GI50 [15] was > 100 µM (inactive), the GI50 [16] was > 100 µM (inactive) and the GI50 [17] was > 100 µM (inactive).
`CC(=O)OC1=C(CC(C)(C)C)C(=O)c2ccccc2C1=O` was tested, and the GI50 [1] was 13.5 µM (inactive), the GI50 [2] was 35.6 µM (inactive) and the GI50 [3] was 37 µM (inactive). The GI50 [4] was 40.2 µM (inactive), the GI50 [5] was 31.8 µM and the GI50 [6] was 16 µM (inactive). For the same molecule, the GI50 [7] was 34.2 µM (inactive), the GI50 [8] was 18.5 µM (inactive) and the GI50 [9] was 32.2 µM (inactive). The GI50 [10] was 30.4 µM (inactive), the GI50 [19] was 39.5 µM (inactive) and the GI50 [11] was 25 µM (inactive). The GI50 [13] was 27.2 µM (inactive), the GI50 [14] was 17.1 µM (inactive) and the GI50 [15] was 31.8 µM (inactive). For the same molecule, the GI50 [16] was 25.3 µM (inactive), the GI50 [17] was 27.4 µM (inactive) and the GI50 [18] was 33 µM (inactive).
For `CCOC(=O)C1C(c2ccc3c(c2)OCO3)c2c(n[nH]c2O)CC1(O)OCC` (centres undefined), the GI50 [1] was > 100 µM (inactive), the GI50 [2] was > 100 µM (inactive) and the GI50 [3] was > 100 µM (inactive). For the same molecule, the GI50 [4] was > 100 µM (inactive), the GI50 [5] was > 100 µM and the GI50 [6] was > 100 µM (inactive). The GI50 [7] was > 100 µM (inactive), the GI50 [9] was > 100 µM (inactive) and the GI50 [10] was > 100 µM (inactive). For the same molecule, the GI50 [19] was > 100 µM (inactive), the GI50 [11] was > 100 µM (inactive) and the GI50 [12] was > 100 µM (inactive). For the same molecule, the GI50 [13] was > 100 µM (inactive), the GI50 [14] was > 100 µM (inactive) and the GI50 [15] was > 100 µM (inactive). The GI50 [17] was > 100 µM (inactive) and the GI50 [18] was > 100 µM (inactive).
